Results from patent US4471131A, “Novel silyl esters of N-phosphonomethylglycine” (Monsanto Company, priority 1983, dated 1984).

Experiments:
Experiment in all cases: post-emergence herbicidal activity, greenhouse
Type in all cases: in vivo
Cocklebur = test system: Cocklebur
Method in brief: (§1)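 Plants grown two to three weeks in greenhouse soil pans were atomizer-sprayed with test chemical in spray containing about 0.4% emulsifier, at the listed rates. Injury relative to unsprayed controls observed at approximately two and four weeks after treatment.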

Velvetleaf = test system: Velvetleaf
Method in brief: as §1

Common Lambsquarters = test system: Common Lambsquarters
Method in brief: as §1

Panicum Spp = details: Table III
Method in brief: as §1

[1] = Table II, 4 WAT, 5.6 kg/h, formulated in anhydrous tetrahydrofuran
[2] = Table II, 4 WAT, 11.2 kg/h, formulated in anhydrous tetrahydrofuran
[3] = Table III, 2 WAT, 1.1 kg/h, formulated in anhydrous tetrahydrofuran
[4] = Table III, 2 WAT, 5.6 kg/h, formulated in anhydrous tetrahydrofuran
[5] = Table III, 2 WAT, .28 kg/h, formulated in anhydrous tetrahydrofuran
[6] = Table III, 4 WAT, 1.1 kg/h, formulated in anhydrous tetrahydrofuran
[7] = Table III, 4 WAT, 5.6 kg/h, formulated in anhydrous tetrahydrofuran
[8] = Table III, 4 WAT, .28 kg/h, formulated in anhydrous tetrahydrofuran
[9] = Table II, 2 WAT, 5.6 kg/h, formulated in anhydrous tetrahydrofuran
[10] = Table II, 2 WAT, 11.2 kg/h, formulated in anhydrous tetrahydrofuran

CCOC(=O)CNCP(=O)(O)O[Si](c1ccccc1)(c1ccccc1)C(C)(C)C [Ex. 7, Glycine, N--((([(1,1-Dimethylethyl)Diphenylsilyl]Oxy)Hydroxyphosphinyl)Methyl)-,Ethyl Ester]
Plant Response Index (B) (Cocklebur; Table II, 4 WAT, 5.6 kg/h): 4 (100% inhibition) | Plant Response Index (B) (Cocklebur; [1]): 3 (75-99% inhibition) | Plant Response Index (B) (Cocklebur; Table II, 4 WAT, 11.2 kg/h): 4 (100% inhibition) | Plant Response Index (B) (Cocklebur; [2]): 3 (75-99% inhibition) | Plant Response Index (B) (Cocklebur; Table III, 2 WAT, 1.1 kg/h): 2 (50-74% inhibition) | Plant Response Index (B) (Cocklebur; [3]): 2 (50-74% inhibition) | Plant Response Index (B) (Cocklebur; Table III, 2 WAT, 5.6 kg/h): 2 (50-74% inhibition) | Plant Response Index (B) (Cocklebur; [4]): 3 (75-99% inhibition) | Plant Response Index (B) (Cocklebur; Table III, 2 WAT, .28 kg/h): 1 (25-49% inhibition) | Plant Response Index (B) (Cocklebur; [5]): 2 (50-74% inhibition) | Plant Response Index (B) (Cocklebur; Table III, 4 WAT, 1.1 kg/h): 3 (75-99% inhibition) | Plant Response Index (B) (Cocklebur; [6]): 2 (50-74% inhibition) | Plant Response Index (B) (Cocklebur; Table III, 4 WAT, 5.6 kg/h): 3 (75-99% inhibition) | Plant Response Index (B) (Cocklebur; [7]): 3 (75-99% inhibition) | Plant Response Index (B) (Cocklebur; Table III, 4 WAT, .28 kg/h): 1 (25-49% inhibition) | Plant Response Index (B) (Cocklebur; [8]): 2 (50-74% inhibition) | Plant Response Index (C) (Velvetleaf; Table II, 2 WAT, 5.6 kg/h): 2 (50-74% inhibition) | Plant Response Index (C) (Velvetleaf; [9]): 1 (25-49% inhibition) | Plant Response Index (C) (Velvetleaf; Table II, 2 WAT, 11.2 kg/h): 3 (75-99% inhibition) | Plant Response Index (C) (Velvetleaf; [10]): 1 (25-49% inhibition) | Plant Response Index (C) (Velvetleaf; Table II, 4 WAT, 5.6 kg/h): 3 (75-99% inhibition) | Plant Response Index (C) (Velvetleaf; [1]): 2 (50-74% inhibition) | Plant Response Index (C) (Velvetleaf; Table II, 4 WAT, 11.2 kg/h): 3 (75-99% inhibition) | Plant Response Index (C) (Velvetleaf; [2]): 1 (25-49% inhibition) | Plant Response Index (C) (Velvetleaf; Table III, 2 WAT, 1.1 kg/h): 1 (25-49% inhibition) | Plant Response Index (C) (Velvetleaf; [3]): 2 (50-74% inhibition) | Plant Response Index (C) (Velvetleaf; Table III, 2 WAT, 5.6 kg/h): 2 (50-74% inhibition) | Plant Response Index (C) (Velvetleaf; [4]): 2 (50-74% inhibition) | Plant Response Index (C) (Velvetleaf; Table III, 2 WAT, .28 kg/h): 1 (25-49% inhibition) | Plant Response Index (C) (Velvetleaf; [5]): 1 (25-49% inhibition) | Plant Response Index (C) (Velvetleaf; Table III, 4 WAT, 1.1 kg/h): 1 (25-49% inhibition) | Plant Response Index (C) (Velvetleaf; [6]): 2 (50-74% inhibition) | Plant Response Index (C) (Velvetleaf; Table III, 4 WAT, 5.6 kg/h): 2 (50-74% inhibition) | Plant Response Index (C) (Velvetleaf; [7]): 3 (75-99% inhibition) | Plant Response Index (C) (Velvetleaf; Table III, 4 WAT, .28 kg/h): 1 (25-49% inhibition) | Plant Response Index (C) (Velvetleaf; [8]): 1 (25-49% inhibition) | Plant Response Index (E) (Common Lambsquarters; Table II, 2 WAT, 5.6 kg/h): 3 (75-99% inhibition) | Plant Response Index (E) (Common Lambsquarters; [9]): 3 (75-99% inhibition) | Plant Response Index (E) (Common Lambsquarters; Table II, 2 WAT, 11.2 kg/h): 4 (100% inhibition) | Plant Response Index (E) (Common Lambsquarters; [10]): 4 (100% inhibition) | Plant Response Index (E) (Common Lambsquarters; Table II, 4 WAT, 5.6 kg/h): 3 (75-99% inhibition) | Plant Response Index (E) (Common Lambsquarters; [1]): 3 (75-99% inhibition) | Plant Response Index (E) (Common Lambsquarters; Table II, 4 WAT, 11.2 kg/h): 4 (100% inhibition) | Plant Response Index (E) (Common Lambsquarters; [2]): 4 (100% inhibition) | Plant Response Index (E) (Common Lambsquarters; Table III, 2 WAT, 1.1 kg/h): 4 (100% inhibition) | Plant Response Index (E) (Common Lambsquarters; [3]): 4 (100% inhibition) | Plant Response Index (E) (Common Lambsquarters; Table III, 2 WAT, 5.6 kg/h): 3 (75-99% inhibition) | Plant Response Index (E) (Common Lambsquarters; [4]): 4 (100% inhibition) | Plant Response Index (E) (Common Lambsquarters; Table III, 2 WAT, .28 kg/h): 3 (75-99% inhibition) | Plant Response Index (E) (Common Lambsquarters; [5]): 2 (50-74% inhibition) | Plant Response Index (E) (Common Lambsquarters; Table III, 4 WAT, 1.1 kg/h): 4 (100% inhibition) | Plant Response Index (E) (Common Lambsquarters; [6]): 4 (100% inhibition) | Plant Response Index (E) (Common Lambsquarters; Table III, 4 WAT, 5.6 kg/h): 3 (75-99% inhibition) | Plant Response Index (E) (Common Lambsquarters; [7]): 4 (100% inhibition) | Plant Response Index (E) (Common Lambsquarters; Table III, 4 WAT, .28 kg/h): 3 (75-99% inhibition) | Plant Response Index (E) (Common Lambsquarters; [8]): 3 (75-99% inhibition) | Plant Response Index (S) (Panicum Spp; 2 WAT, 1.1 kg/h): 4 (100% inhibition) | Plant Response Index (S) (Panicum Spp; 2 WAT, 1.1 kg/h, formulated in anhydrous tetrahydrofuran): 2 (50-74% inhibition) | Plant Response Index (S) (Panicum Spp; 2 WAT, 5.6 kg/h): 3 (75-99% inhibition) | Plant Response Index (S) (Panicum Spp; 2 WAT, 5.6 kg/h, formulated in anhydrous tetrahydrofuran): 4 (100% inhibition) | Plant Response Index (S) (Panicum Spp; 2 WAT, .28 kg/h): 3 (75-99% inhibition) | Plant Response Index (S) (Panicum Spp; 2 WAT, .28 kg/h, formulated in anhydrous tetrahydrofuran): 1 (25-49% inhibition) | Plant Response Index (S) (Panicum Spp; 4 WAT, 1.1 kg/h): 4 (100% inhibition) | Plant Response Index (S) (Panicum Spp; 4 WAT, 1.1 kg/h, formulated in anhydrous tetrahydrofuran): 2 (50-74% inhibition) | Plant Response Index (S) (Panicum Spp; 4 WAT, 5.6 kg/h): 4 (100% inhibition) | Plant Response Index (S) (Panicum Spp; 4 WAT, 5.6 kg/h, formulated in anhydrous tetrahydrofuran): 4 (100% inhibition) | Plant Response Index (S) (Panicum Spp; 4 WAT, .28 kg/h): 3 (75-99% inhibition) | Plant Response Index (S) (Panicum Spp; 4 WAT, .28 kg/h, formulated in anhydrous tetrahydrofuran): 1 (25-49% inhibition)
